We go through nine compounds from PubChem BioAssay (NCI).

“And” between values parts separate entries of the source, which are not always exact repeats. Identical values can stand only once.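 Test compounds were applied to cells in 96-well plates for 48 hours at 5 doses. Abbreviation: GI50, concentration required for 50% inhibition of growth. TGI: total growth inhibition.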 Where only a bound is given, the exact number is not on record here.

Among the test systems are SF-268 CNS; U251 CNS; CCRF-CEM leukemia; SNB-19 CNS; UO-31 renal; CAKI-1 renal; MDA-MB-231 breast; UACC-62 melanoma; NCI-H23 lung; TK-10 renal.
Common to all, as to experiment: NCI anticancer screen, dose series, 48 h

Regarding `COc1cc(-c2nc(-c3ccc(-c4nc5ccc(F)cc5[nH]4)cc3)no2)cc(OC)c1OC`, the GI50 is 3.99 µM in the assay on SF-268 CNS; 3.03 µM in the assay on U251 CNS; 2.97 µM in the assay on CCRF-CEM leukemia; 5.62 µM in the assay on SNB-19 CNS; 2.51 µM in the assay on UO-31 renal; 2.76 µM with CAKI-1 renal. The GI50 in the assay with MDA-MB-231 breast was 2.39 µM; with UACC-62 melanoma it was 2.35 µM; with NCI-H23 lung, 2.5 µM; in the assay with TK-10 renal it was 8.27 µM. For the same compound, the TGI in the assay on SF-268 CNS is 32.4 µM; in the assay with U251 CNS, 28.8 µM; with CCRF-CEM leukemia it was 22.3 µM; in the assay with SNB-19 CNS, above 100 µM; in the assay on UO-31 renal, 6.3 µM; with CAKI-1 renal it was 9.13 µM. The TGI in the assay with MDA-MB-231 breast came to 7.66 µM; in the assay with UACC-62 melanoma, 6.61 µM; in the assay with NCI-H23 lung, 8.35 µM; with TK-10 renal it was 34.1 µM.
Take `CC(C)=CC(=O)N[C@@H]1CC2CCC3C(CC[C@@]4(C)C3CC[C@@H]4C(C)N(C)C)[C@@]2(C)C[C@@H]1O` (stereo not given in full): the GI50 was 2.71 µM with SF-268 CNS; 3.97 µM in the assay with U251 CNS; 4.85 µM in the assay with CCRF-CEM leukemia; 17.8 µM in the assay on SNB-19 CNS; 1.62 µM in the assay with UO-31 renal; 5.96 µM with CAKI-1 renal. The GI50 is 5.77 µM with MDA-MB-231 breast, 2.24 µM with UACC-62 melanoma, 5.06 µM with NCI-H23 lung and 14.1 µM in the assay with TK-10 renal. Also, the TGI with SF-268 CNS stood at 12.2 µM; in the assay on U251 CNS it was 22 µM; in the assay with CCRF-CEM leukemia, 28.9 µM; in the assay on SNB-19 CNS it was 60.4 µM; in the assay with UO-31 renal, 4.43 µM; in the assay on CAKI-1 renal, 23.9 µM. Further, the TGI with MDA-MB-231 breast is 19.8 µM; in the assay with UACC-62 melanoma, 5.28 µM; in the assay with NCI-H23 lung, 39.1 µM; in the assay with TK-10 renal it was 32.3 µM.
As for `O=C1/C(=C/c2ccc(Cl)c(Cl)c2)CNC/C1=C\c1ccc(Cl)c(Cl)c1`, the TGI turned out to be 16.4 µM in the assay on SF-268 CNS; 11.9 µM in the assay with U251 CNS; 5.68 µM in the assay with CCRF-CEM leukemia; 32.6 µM in the assay on SNB-19 CNS; 32.2 µM in the assay on UO-31 renal; 24.3 µM in the assay with CAKI-1 renal. In addition, the TGI was determined as 8.7 µM with MDA-MB-231 breast, 29.1 µM in the assay with UACC-62 melanoma, 26.9 µM in the assay with NCI-H23 lung and 80 µM in the assay with TK-10 renal.
In the case of `Oc1ccc2ccccc2c1N=Nc1ccc(Cl)cc1`, the TGI in the assay with SF-268 CNS, in the assay on U251 CNS, in the assay on CCRF-CEM leukemia, in the assay on SNB-19 CNS, in the assay on UO-31 renal and in the assay on CAKI-1 renal was above 100 µM each time. Also, the TGI in the assay on MDA-MB-231 breast, in the assay with UACC-62 melanoma, in the assay with NCI-H23 lung and with TK-10 renal was above 100 µM each time.
Regarding `O=C(Cc1ccc(Nc2ccnc(C(F)(F)F)c2)cc1)Nc1cc(Cl)ccc1O`, the GI50 is 8.39 µM in the assay on SF-268 CNS; 6.46 µM in the assay with U251 CNS; 1.68 µM with CCRF-CEM leukemia; 5.31 µM in the assay with SNB-19 CNS; 2.84 µM in the assay on UO-31 renal; 13.7 µM with CAKI-1 renal. For the same compound, the GI50 is 4.92 µM in the assay on MDA-MB-231 breast, 2.75 µM in the assay on UACC-62 melanoma, 2.86 µM in the assay with NCI-H23 lung and 17.7 µM with TK-10 renal. Also, the TGI is 31.5 µM in the assay on SF-268 CNS; 23.6 µM with U251 CNS; 7.63 µM in the assay on CCRF-CEM leukemia; 38 µM in the assay with SNB-19 CNS; 18.2 µM in the assay with UO-31 renal; 43.7 µM in the assay on CAKI-1 renal. Also, the TGI in the assay with MDA-MB-231 breast was determined as 24.2 µM; in the assay with UACC-62 melanoma, 13.9 µM; in the assay with NCI-H23 lung, 13.3 µM; with TK-10 renal it was 56 µM.
For the compound `CCOC(=O)c1ccccc1SC(C[N+](=O)[O-])c1ccccc1` (stereo not given), the GI50 in the assay with SF-268 CNS was 6.06 µM; with U251 CNS, 12 µM; with CCRF-CEM leukemia it was 4.64 µM; in the assay with SNB-19 CNS, 11.7 µM; in the assay on UO-31 renal, 2.43 µM; with CAKI-1 renal it was 14.8 µM. Moreover, the GI50 with MDA-MB-231 breast was 9.1 µM; with UACC-62 melanoma, 13.3 µM; with NCI-H23 lung it was 12.3 µM; in the assay with TK-10 renal, 5.91 µM. Further, the TGI turned out to be 19.2 µM in the assay with SF-268 CNS; 24.7 µM with U251 CNS; 36.2 µM in the assay with CCRF-CEM leukemia; 23.9 µM in the assay with SNB-19 CNS; 7.22 µM in the assay on UO-31 renal; 31.2 µM in the assay on CAKI-1 renal. The TGI in the assay on MDA-MB-231 breast was determined as 21.8 µM; with UACC-62 melanoma, 27.1 µM; with NCI-H23 lung it was 35.1 µM; in the assay with TK-10 renal, 18.8 µM.
On to `COc1ccc(/C=N\NC(=O)c2ccc3nc(-c4ccc(Cl)cc4)[nH]c3c2)cc1`, for which the GI50 in the assay on SF-268 CNS is 2.09 µM; in the assay with U251 CNS, 2.43 µM; in the assay with CCRF-CEM leukemia it was 4.9 µM; in the assay with SNB-19 CNS, 3.13 µM; with UO-31 renal, 1.86 µM; in the assay with CAKI-1 renal, 2.1 µM. The GI50 was 2.42 µM in the assay on MDA-MB-231 breast, 1.94 µM in the assay with UACC-62 melanoma, 2.74 µM with NCI-H23 lung and 2.95 µM in the assay with TK-10 renal. For the same compound, the TGI was 5.1 µM in the assay on SF-268 CNS; 5.22 µM in the assay with U251 CNS; above 100 µM in the assay with CCRF-CEM leukemia; 7.95 µM in the assay on SNB-19 CNS; 6.38 µM with UO-31 renal; 6.03 µM with CAKI-1 renal. Moreover, the TGI in the assay on MDA-MB-231 breast turned out to be 5.45 µM; with UACC-62 melanoma it was 4.47 µM; in the assay with NCI-H23 lung it was 11.2 µM; with TK-10 renal, 6.59 µM.
Take `CC#CC#C/C=C1\C=CC2(OC=CC2OC(C)=O)O1` (stereo not given): the TGI is 85.4 µM and 46.1 µM in the assay on SF-268 CNS; 43.1 µM and 33.2 µM in the assay with U251 CNS; 40.3 µM and 72.9 µM with CCRF-CEM leukemia; above 100 µM with SNB-19 CNS; 30.8 µM and 36.2 µM in the assay on UO-31 renal; 31.2 µM in the assay on CAKI-1 renal. Besides, the TGI in the assay with MDA-MB-231 breast is 41.9 µM; with UACC-62 melanoma, 52.3 µM and 33.2 µM; in the assay on NCI-H23 lung, 42.9 µM and 16.5 µM; in the assay with TK-10 renal it was > 100 µM and 59.7 µM.
Take `CCOc1cc2c(=O)oc3c(OC)ccc4ccc(c1OC)c2c43`: the TGI in the assay on SF-268 CNS, with U251 CNS, with CCRF-CEM leukemia, in the assay with SNB-19 CNS, in the assay with UO-31 renal and in the assay with CAKI-1 renal was above 100 µM throughout. Also, the TGI in the assay with MDA-MB-231 breast is 97.5 µM; with UACC-62 melanoma, above 100 µM; in the assay with NCI-H23 lung, above 100 µM; in the assay on TK-10 renal, above 100 µM.
